Experimental findings from patent US7056917B2, “Drug efflux pump inhibitor” (Daiichi Pharmaceutical Co., Ltd., priority 2001, dated 2006) are described below.

Common to all, as to assay type: cell-based
In assay [1] the test system is Pseudomonas aeruginosa PAM 1723 strain highly expressing the drug efflux pump. Nature of the assay: Effect of combined use with antimicrobial agent (levofloxacin, aztreonam) on multidrug resistant Pseudomonas aeruginosa. As to conditions: 18 hours, MHB. From the text:
Effect of Combined Use with Antimicrobial Agent on Multidrug Resistant Pseudomonas aeruginosa
As multidrug resistant Pseudomonas aeruginosa, Pseudomonas aeruginosa PAM 1723 strain highly expressing the drug efflux pump was used. As antimicrobial drugs for the combinational uses, levofloxacin (LVFX) as a quinolone antibacterial agent and aztreonam (AZT) as a monobactam antibiotic were used. Each of the compounds shown in Table 1 with Example No., which falls within the compounds of the present invention, was subjected to the measurement of its minimum concentration (μg/ml) that was required to enhance the antibacterial activity of levofloxacin when the test compound was used in combination with levofloxacin applied at a concentration of 1/4, or 1/8 or less of the minimum inhibitory concentration against the PAM 1723 strain. […] Effects as combinational uses for 18 hours was indicated for each of the drugs. Effects were determined by visually observing the turbidity of the medium. The Müller-Hinton broth (MHB, Difco) was used as a medium, and the inoculum of the bacteria was 1×10^6 CFU/ml.

Assay [2] deals with Pseudomonas aeruginosa wild strain PAM 1020. The assay can be described thus: Combined use of a pump inhibitor, levofloxacin (LVFX) and meropenem (MEPM) evaluated by the three-dimensional checker board method. Particulars: for FIC index: PAM 1020. The method, then: (1) Effect of Combined Used of a Pump Inhibitor, Levofloxacin (LVFX) and Meropenem (MEPM) Evaluated by the Three-Dimensional Checker Board Method
The effect was measured by the three-dimensional checker board method by using Pseudomonas aeruginosa wild strain PAM 1020. The test strain was inoculated into Mueller-Hinton broth containing LVFX, MEPM (at 11 concentration levels and 0 μg/ml) and the compound of Example 26 (40-0.625 μg/ml and 0 μg/ml) at a concentration of 10^6 CFU/ml and cultured at 37° C. for 18 hours. Then, MIC was measured for sole and combined use. Measurement was performed by the checker board method and FIC index was calculated according to the following equation. FIC index=a/a0+b/b0+c/c0 wherein a0: MIC for Agent A used alone, a: MIC for Agent A when Agents A, B and C are used in combination, b0: MIC for Agent B used alone, b: MIC for Agent B when Agents A, B and C are used in combination, c0: MIC for Agent C used alone, c: MIC for Agent C when Agents A, B and C are used in combination.
It was determined that there was synergistic effect when FIC index was 0.75 or less, additive effect or weak synergistic effect when the index was more than 0.75 but not more than 1.125, no effect of combined use when the index was more than 1.125 but not more than 3.0, and antagonistic effect when the index was more than 3.0.

The test system of assay [3] is Pseudomonas aeruginosa PAM 1723 (a strain highly expressing MexAB-OprM drug efflux pump). Nature of the assay: Combined use of drug efflux pump inhibitor and disinfectant, broth dilution method. Particulars: for enhancement of activity of the disinfectant on PAM 1723: combined use with 10 μg/ml of the compound of Example 26. The method, then:
Effect of Combined Use of Drug Efflux Pump Inhibitor and Disinfectant
Effects of a combined use of a drug efflux pump inhibitor and alkyldiaminoethylglycine hydrochloride (AEG, trade name: Tego 51) or chlorhexidine gluconate (CHG, trade name: Hibiten) on Pseudomonas aeruginosa PAM 1723 (a strain highly expressing MexAB-OprM drug efflux pump) was determined by the broth dilution method. The compound of Example 26 was added at a final concentration of 10 μg/ml to Mueller-Hinton broth (MHB) containing a disinfectant at a concentration after 2-fold serial dilution. The amount of the test bacteria inoculated was 1×10^6 CFU/ml, and after standing cultivation at 37° C. for 18 hours, the culture was observed by visual inspection. The minimum concentration that gave no turbidity as in the control of MHB was determined as MIC.

[4] abbreviates: combined with compound of Example 26 at 10 μg/ml, PAM 1723, 37° C. 18 hours.
The mark [5] stands for this setting: compound of Example 26 at 10 μg/ml, PAM 1723.
Where [6] appears, read: disinfectant alone, PAM 1723, 37° C. 18 hours.

`CC(C)c1csc(CCc2ccn3c(=O)c(/C=C/C(=O)O)c(N4CCCC(O)C4)nc3c2)n1` (stereo not drawn) [Example 26]: the “MPC8 AZT” value in assay [1] (minimum concentration of test compound required to enhance antibacterial activity of aztreonam at 1/8 or less of MIC) is 1 µg/mL. The “MPC4 LVFX” value in assay [1] (minimum concentration of test compound required to enhance antibacterial activity of levofloxacin applied at 1/4 of MIC) stood at 0.25 µg/mL. Moreover, in assay [1] (minimum concentration of test compound required to enhance antibacterial activity of levofloxacin applied at 1/8 or less of MIC), the “MPC8 LVFX” value was 1 µg/mL. Also, the FIC index in assay [2] (LVFX + MEPM 0.016 μg/ml + compound of Example 26 0.625 μg/ml) is reported as 1.039; in assay [2] (LVFX + MEPM 0.016 μg/ml + compound of Example 26 1.25 μg/ml), 1.047; in assay [2] (LVFX + MEPM 0.016 μg/ml + compound of Example 26 2.5 μg/ml), 1.063; in assay [2] (LVFX + MEPM 0.016 μg/ml + compound of Example 26 5 μg/ml), 0.594; in assay [2] (LVFX + MEPM 0.016 μg/ml + compound of Example 26 10 μg/ml), 0.656; in assay [2] (LVFX + MEPM 0.016 μg/ml + compound of Example 26 20 μg/ml), 0.781. Besides, the FIC index in assay [2] (LVFX + MEPM 0.016 μg/ml + compound of Example 26 40 μg/ml) worked out at 1.031; in assay [2] (LVFX + MEPM 0.0313 μg/ml + compound of Example 26 0.625 μg/ml), 1.07; in assay [2] (LVFX + MEPM 0.0313 μg/ml + compound of Example 26 1.25 μg/ml) it was 1.078; in assay [2] (LVFX + MEPM 0.0313 μg/ml + compound of Example 26 2.5 μg/ml), 0.5938; in assay [2] (LVFX + MEPM 0.0313 μg/ml + compound of Example 26 5 μg/ml) it was 0.625; in assay [2] (LVFX + MEPM 0.0313 μg/ml + compound of Example 26 10 μg/ml) it was 0.6875. The FIC index in assay [2] (LVFX + MEPM 0.0313 μg/ml + compound of Example 26 20 μg/ml) amounted to 0.8125; in assay [2] (LVFX + MEPM 0.0313 μg/ml + compound of Example 26 40 μg/ml) it was 1.0625; in assay [2] (LVFX + MEPM 0.0625 μg/ml + compound of Example 26 0.625 μg/ml), 1.133; in assay [2] (LVFX + MEPM 0.0625 μg/ml + compound of Example 26 1.25 μg/ml), 0.641; in assay [2] (LVFX + MEPM 0.0625 μg/ml + compound of Example 26 2.5 μg/ml) it was 0.656; in assay [2] (LVFX + MEPM 0.0625 μg/ml + compound of Example 26 5 μg/ml) it was 0.438. Besides, the FIC index in assay [2] (LVFX + MEPM 0.0625 μg/ml + compound of Example 26 10 μg/ml) amounted to 0.500; in assay [2] (LVFX + MEPM 0.0625 μg/ml + compound of Example 26 20 μg/ml), 0.500; in assay [2] (LVFX + MEPM 0.0625 μg/ml + compound of Example 26 40 μg/ml) it was 0.750; in assay [2] (LVFX + MEPM 0.125 μg/ml + compound of Example 26 0.625 μg/ml), 0.781; in assay [2] (LVFX + MEPM 0.125 μg/ml + compound of Example 26 1.25 μg/ml) it was 0.563; in assay [2] (LVFX + MEPM 0.125 μg/ml + compound of Example 26 2.5 μg/ml) it was 0.500. In addition, the results for the FIC index in assay [2] (LVFX + MEPM 0.125 μg/ml + compound of Example 26 5 μg/ml), in assay [2] (LVFX + MEPM 0.125 μg/ml + compound of Example 26 10 μg/ml) and in assay [2] (LVFX + MEPM 0.25 μg/ml + compound of Example 26 0.625 μg/ml) were 0.563, 0.766 and 1.063, respectively. For the same compound, the MIC (usually the lowest concentration that inhibits growth of the organism) in assay [2] (Pseudomonas aeruginosa, agent used alone, PAM 1020 strain) was not below 80 µg/mL.

Turning to “alkyldiaminoethylglycine hydrochloride [AEG]”, the “enhancement of activity of the disinfectant on PAM 1723” value in assay [3] is listed as “two times”. Besides, in assay [3] (setting [4]), the “MIC AEG Combined use” value is 32 µg/mL. The “AEG Ratio of MIC values for single use of the disinfectant and combined use with the compound of Example 26” value in assay [3] (setting [5]) stood at 2. The “MIC AEG Single use” value in assay [3] (setting [6]) was determined as 64 µg/mL.

As for `N=C(NCCCCCCNC(=N)NC(=N)Nc1ccc(Cl)cc1)NC(=N)Nc1ccc(Cl)cc1.O=C(O)[C@H](O)[C@@H](O)[C@H](O)[C@H](O)CO.O=C(O)[C@H](O)[C@@H](O)[C@H](O)[C@H](O)CO` [CHG, chlorhexidine gluconate], the “enhancement of activity of the disinfectant on PAM 1723” value in assay [3] is listed as “four times”. The “MIC CHG Combined use” value in assay [3] (setting [4]) was 4 µg/mL. For the same compound, the “CHG Ratio of MIC values for single use of the disinfectant and combined use with the compound of Example 26” value in assay [3] (setting [5]) is 4. In addition, in assay [3] (setting [6]), the “MIC CHG Single use” value stood at 16 µg/mL.
